According to the NIST ThermoML archive (doi:10.1016/j.tca.2018.11.018):
Numbers after ± are expanded uncertainties.

Assay: xn = mol fraction of the nth substance listed
Details: 100 kPa, Liquid; for viscosity: Falling or rolling sphere viscometry; for mass density: Vibrating tube method

CCCC[N+](CC)(CC)CC.[Br-] [butyltriethyl ammonium bromide] + O
Details	mass density [kg/m3]	viscosity [mPa·s]
298.15 K, x1 = 0.02	1030.2 ± 1	1.581 ± 0.096
298.15 K, x1 = 0.04	1057.3 ± 1	2.599 ± 0.16
298.15 K, x1 = 0.06	1078.8 ± 1	4.044 ± 0.24
298.15 K, x1 = 0.08	1095.3 ± 1	5.87 ± 0.35
298.15 K, x1 = 0.105	1111 ± 1	10.02 ± 0.61
298.15 K, x1 = 0.13	1122.8 ± 1.1	14.11 ± 0.85
298.15 K, x1 = 0.16	1133.5 ± 1.1	21.36 ± 1.3
298.15 K, x1 = 0.189	1140.9 ± 1.1	30.66 ± 1.9
298.15 K, x1 = 0.22	1147.3 ± 1.1	43.63 ± 2.6
298.15 K, x1 = 0.253	1152.5 ± 1.2	63.73 ± 3.9
303.15 K, x1 = 0.02	1028.2 ± 1	1.381 ± 0.083
303.15 K, x1 = 0.04	1054.7 ± 1	2.216 ± 0.13
303.15 K, x1 = 0.06	1075.6 ± 1	3.393 ± 0.2
303.15 K, x1 = 0.08	1091.9 ± 1	4.835 ± 0.29
303.15 K, x1 = 0.105	1107.4 ± 1	8.222 ± 0.5
303.15 K, x1 = 0.13	1119.1 ± 1.1	11.45 ± 0.69
303.15 K, x1 = 0.16	1129.8 ± 1.1	16.85 ± 1
303.15 K, x1 = 0.189	1137.3 ± 1.1	23.62 ± 1.4
303.15 K, x1 = 0.22	1143.7 ± 1.1	33 ± 2
303.15 K, x1 = 0.253	1148.9 ± 1.2	47.05 ± 2.9
308.15 K, x1 = 0.02	1026 ± 1	1.223 ± 0.074
308.15 K, x1 = 0.04	1051.9 ± 1	1.921 ± 0.12
308.15 K, x1 = 0.06	1072.5 ± 1	2.885 ± 0.17
308.15 K, x1 = 0.08	1088.4 ± 1	4.054 ± 0.24
308.15 K, x1 = 0.105	1103.8 ± 1	6.767 ± 0.41
308.15 K, x1 = 0.13	1115.4 ± 1	9.328 ± 0.56
308.15 K, x1 = 0.16	1126.1 ± 1.1	13.49 ± 0.82
308.15 K, x1 = 0.189	1133.6 ± 1.1	18.55 ± 1.1
308.15 K, x1 = 0.22	1140.1 ± 1.1	25.39 ± 1.5
308.15 K, x1 = 0.253	1145.4 ± 1.2	35.52 ± 2.2
313.15 K, x1 = 0.02	1023.6 ± 1	1.091 ± 0.066
313.15 K, x1 = 0.04	1049.1 ± 1	1.682 ± 0.1
313.15 K, x1 = 0.06	1069.2 ± 1	2.488 ± 0.15
313.15 K, x1 = 0.08	1084.9 ± 1	3.441 ± 0.21
313.15 K, x1 = 0.105	1100.2 ± 1	5.583 ± 0.34
313.15 K, x1 = 0.13	1111.7 ± 1	7.649 ± 0.46
313.15 K, x1 = 0.16	1122.4 ± 1.1	10.91 ± 0.66
313.15 K, x1 = 0.189	1129.9 ± 1.1	14.79 ± 0.9
313.15 K, x1 = 0.22	1136.5 ± 1.1	19.92 ± 1.2
313.15 K, x1 = 0.253	1141.9 ± 1.2	27.22 ± 1.7
318.15 K, x1 = 0.02	1021 ± 1	0.981 ± 0.059
318.15 K, x1 = 0.04	1046.1 ± 1	1.485 ± 0.09
318.15 K, x1 = 0.06	1065.9 ± 1	2.164 ± 0.13
318.15 K, x1 = 0.08	1081.4 ± 1	2.942 ± 0.18
318.15 K, x1 = 0.105	1096.5 ± 1	4.648 ± 0.28
318.15 K, x1 = 0.13	1108 ± 1	6.334 ± 0.38
318.15 K, x1 = 0.16	1118.7 ± 1.1	8.969 ± 0.54
318.15 K, x1 = 0.189	1126.2 ± 1.1	12.07 ± 0.73
318.15 K, x1 = 0.22	1132.8 ± 1.1	15.94 ± 0.97
318.15 K, x1 = 0.253	1138.3 ± 1.2	21.51 ± 1.3
323.15 K, x1 = 0.02	1018.3 ± 1	0.889 ± 0.054
323.15 K, x1 = 0.04	1042.9 ± 1	1.324 ± 0.08
323.15 K, x1 = 0.06	1062 ± 1	1.906 ± 0.12
323.15 K, x1 = 0.08	1077.8 ± 1	2.567 ± 0.15
323.15 K, x1 = 0.105	1092.8 ± 1	3.92 ± 0.24
323.15 K, x1 = 0.13	1104.2 ± 1	5.293 ± 0.32
323.15 K, x1 = 0.16	1115 ± 1.1	7.453 ± 0.45
323.15 K, x1 = 0.189	1122.5 ± 1.1	9.912 ± 0.6
323.15 K, x1 = 0.22	1129.2 ± 1.1	12.97 ± 0.79
323.15 K, x1 = 0.253	1134.7 ± 1.2	17.19 ± 1.1
328.15 K, x1 = 0.02	1015.8 ± 1	0.812 ± 0.049
328.15 K, x1 = 0.04	1039.9 ± 1	1.189 ± 0.072
328.15 K, x1 = 0.06	1059.1 ± 1	1.69 ± 0.1
328.15 K, x1 = 0.08	1074.2 ± 1	2.252 ± 0.14
328.15 K, x1 = 0.105	1089.1 ± 1	3.358 ± 0.2
328.15 K, x1 = 0.13	1100.5 ± 1	4.483 ± 0.27
328.15 K, x1 = 0.16	1111.2 ± 1.1	6.266 ± 0.38
328.15 K, x1 = 0.189	1118.8 ± 1.1	8.29 ± 0.5
328.15 K, x1 = 0.22	1125.6 ± 1.1	10.76 ± 0.65
328.15 K, x1 = 0.253	1131.2 ± 1.2	14.11 ± 0.86
333.15 K, x1 = 0.02	1013.01 ± 1	0.75 ± 0.045
333.15 K, x1 = 0.04	1036.64 ± 1	1.077 ± 0.065
333.15 K, x1 = 0.06	1055.6 ± 1	1.514 ± 0.092
333.15 K, x1 = 0.08	1070.54 ± 1	1.996 ± 0.12
333.15 K, x1 = 0.105	1085.3 ± 1	2.937 ± 0.18
333.15 K, x1 = 0.13	1096.66 ± 1.1	3.847 ± 0.23
333.15 K, x1 = 0.16	1107.44 ± 1.1	5.319 ± 0.32
333.15 K, x1 = 0.189	1115.11 ± 1.1	7.032 ± 0.43
333.15 K, x1 = 0.22	1121.89 ± 1.1	9.062 ± 0.55
333.15 K, x1 = 0.253	1127.56 ± 1.2	11.8 ± 0.72
338.15 K, x1 = 0.02	1010 ± 1	0.7 ± 0.042
338.15 K, x1 = 0.04	1033.3 ± 1	0.999 ± 0.06
338.15 K, x1 = 0.06	1052 ± 1	1.363 ± 0.082
338.15 K, x1 = 0.08	1066.8 ± 1	1.781 ± 0.11
338.15 K, x1 = 0.105	1081.5 ± 1	2.425 ± 0.15
338.15 K, x1 = 0.13	1092.8 ± 1	3.339 ± 0.2
338.15 K, x1 = 0.16	1103.7 ± 1.1	4.555 ± 0.28
338.15 K, x1 = 0.189	1111.4 ± 1.1	5.982 ± 0.36
338.15 K, x1 = 0.22	1118.2 ± 1.1	7.687 ± 0.47
338.15 K, x1 = 0.253	1124 ± 1.2	9.932 ± 0.6
343.15 K, x1 = 0.02	1006.6 ± 1	0.655 ± 0.04
343.15 K, x1 = 0.04	1029.5 ± 1	0.922 ± 0.056
343.15 K, x1 = 0.06	1048.4 ± 1	1.233 ± 0.075
343.15 K, x1 = 0.08	1063.1 ± 1	1.601 ± 0.097
343.15 K, x1 = 0.105	1077.7 ± 1	2.156 ± 0.13
343.15 K, x1 = 0.13	1089 ± 1	2.959 ± 0.18
343.15 K, x1 = 0.16	1099.8 ± 1.1	3.974 ± 0.24
343.15 K, x1 = 0.189	1107.6 ± 1.1	5.163 ± 0.31
343.15 K, x1 = 0.22	1114.6 ± 1.1	6.602 ± 0.4
343.15 K, x1 = 0.253	1120.3 ± 1.2	8.504 ± 0.52
348.15 K, x1 = 0.02	1003.4 ± 1	0.608 ± 0.037
348.15 K, x1 = 0.04	1026.5 ± 1	0.876 ± 0.053
348.15 K, x1 = 0.06	1044.7 ± 1	1.124 ± 0.068
348.15 K, x1 = 0.08	1059.3 ± 1	1.446 ± 0.087
348.15 K, x1 = 0.105	1073.8 ± 1	1.931 ± 0.12
348.15 K, x1 = 0.13	1085.1 ± 1	2.658 ± 0.16
348.15 K, x1 = 0.16	1096 ± 1.1	3.489 ± 0.21
348.15 K, x1 = 0.189	1103.8 ± 1.1	4.485 ± 0.27
348.15 K, x1 = 0.22	1110.8 ± 1.1	5.702 ± 0.35
348.15 K, x1 = 0.253	1116.7 ± 1.2	7.325 ± 0.45
